# Results published in patent US8685956B2, “Compositions and methods for reducing the risk of agent-induced liver toxicity” (The Board of Trustees of The University of Illinois, priority 2009, dated 2014).
# Like-named read-outs stand apart in the source and are kept apart here.
# Assays:
# inbred mouse strains = assay: APAP-induced liver toxicity in a panel of inbred mouse strains (serum ALT activity); assay type: in vivo; conditions: single 300 mg/kg intraperitoneal injection, 6 hour
# Procedure: A panel of inbred mouse strains was studied using an integrated genetic, transcriptional and metabolomic approach in order to better characterize genetic factors affecting susceptibility to APAP-induced liver toxicity.
# The liver toxic effect of APAP was assessed by measuring the serum alanine aminotransferase (ALT) activity after a single administration of toxic level (300 mg/kg, intraperitoneal injection) APAP.
# hepatic glutathione = conditions: after a toxic dose; James et al. 2003; cited from earlier work
# APAP poisoning = conditions: cited from earlier work
# [1] = test system: APAP-induced liver toxicity in inbred strains with intact or deficient Bhmt2 activity; assay: Strain-specific effect of SMM or SAM co-administration on APAP-induced liver toxicity; assay type: in vivo, mouse; conditions: 3 hour after APAP
# Procedure: The availability of two inbred strains with allelic variants that eliminate Bhmt2 enzyme activity enabled the hypothesis that Bhmt2 is a susceptibility factor for APAP-induced liver toxicity to be tested in vivo. The effect that co-administration of SAM or SMM, which act on sequential steps in the methionine/GSH biosynthesis pathway, had on APAP-induced liver toxicity in strains with intact or deficient Bhmt2 activity was analyzed.
# Hepatic glutathione (GSH) and methionine levels and the serum ALT were measured 3 hour after APAP administration to inbred strains. The R and S in the lower panel indicate whether SMM or SAM co-administration should have a protective (Rescue) effect, or not have a beneficial (Susceptible) effect on APAP-induced liver toxicity, respectively.
# Bhmt2 = molecular target: T1, Bhmt2 (Homo sapiens, UniProt Q9H2M3); conditions: Szegedi et al. 2008; cited from earlier work
# T1 sequence (Q9H2M3 1-363): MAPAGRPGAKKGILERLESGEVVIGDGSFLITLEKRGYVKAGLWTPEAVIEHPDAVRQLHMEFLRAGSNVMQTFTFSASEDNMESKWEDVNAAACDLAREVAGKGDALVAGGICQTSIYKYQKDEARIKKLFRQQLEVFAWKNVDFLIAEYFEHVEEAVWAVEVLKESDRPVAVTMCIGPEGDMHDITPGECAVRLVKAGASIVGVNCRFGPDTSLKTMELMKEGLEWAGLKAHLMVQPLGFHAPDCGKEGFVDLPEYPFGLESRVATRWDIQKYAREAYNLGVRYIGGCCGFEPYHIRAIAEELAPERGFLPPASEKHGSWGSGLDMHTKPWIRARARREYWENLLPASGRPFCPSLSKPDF
# [2] = test system: APAP-induced hepatotoxicity; conditions: cited from earlier work
structure (smiles),measurement,setting,value
"CC(=O)Nc1ccc(O)cc1 [APAP, Acetaminophen]",liver injury (serum ALT activity),inbred mouse strains; SJL/J mice,resistant phenotype
same,liver injury (serum alanine aminotransferase (ALT) activity),inbred mouse strains; all strains other than SJL/J,Significant liver injury
same,depletion of hepatic glutathione,hepatic glutathione,≤ 90%
CC(=O)N[C@@H](CS)C(=O)O [N-acetylcysteine],tolerability,APAP poisoning; oral administration,poorly tolerated
same,antidote effect in severe and ongoing APAP poisoning,APAP poisoning; patients,effective antidote
"C[S+](CC[C@H](N)C(=O)O)C[C@H]1O[C@@H](n2cnc3c(N)ncnc32)[C@H](O)[C@@H]1O (stereo partly drawn) [SAM, S-adenosylmethionine]","effect of co-administration on APAP-induced liver toxicity (hepatic GSH, methionine, serum ALT)",[1]; all strains,protective effect in all strains
same,Bhmt2 activity with the substance as methyl donor,Bhmt2,very low activity
same,hepatic GSH levels,"[2]; C57BL/6J mice, APAP",preserve hepatic GSH levels
same,attenuation of APAP-induced hepatotoxicity,[2]; C57BL/6J mice,attenuate APAP-induced hepatotoxicity
same,attenuation of APAP-induced hepatotoxicity,[2]; previously shown,attenuate APAP-induced hepatotoxicity
"C[S+](C)CC[C@H](N)C(=O)[O-] [SMM, S-methylmethionine]","effect of co-administration on APAP-induced liver toxicity (hepatic GSH, methionine, serum ALT)",[1]; strains with active Bhmt2 enzyme (Gly27 allele),protective effect
same,"effect of co-administration on APAP-induced liver toxicity (hepatic GSH, methionine, serum ALT)",[1]; strains with inactive (Ser27 allele) Bhmt2 enzyme,not in strains with inactive (Ser27 allele) enzyme
same,Bhmt2 activity with the substance as methyl donor,Bhmt2,specific methyltransferase
C[N+](C)(C)CC(=O)O [betaine],Bhmt2 activity with the substance as methyl donor,Bhmt2,cannot use betaine as the methyl donor
CSCC[C@H](N)C(=O)O [methionine],attenuation of APAP-induced hepatotoxicity,[2]; previously shown,attenuate APAP-induced hepatotoxicity
